Data taken from PubChem BioAssay (NCI).
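Five concentrations, 48 hours, 96-well plates. Definition used: TGI = concentration required for complete inhibition of growth.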

Columns and labels:
Assay in all cases: DTP human tumour cell line panel, 48 h
NCI-H522 lung = system: NCI-H522 lung
NCI-H23 lung = system: NCI-H23 lung
UO-31 renal = system: UO-31 renal
OVCAR-3 ovarian = system: OVCAR-3 ovarian
RXF 393 renal = system: RXF 393 renal
DMS 114 small cell lung = system: DMS 114 small cell lung
SNB-75 CNS = system: SNB-75 CNS
OVCAR-5 ovarian = system: OVCAR-5 ovarian
M14 melanoma = system: M14 melanoma
HCT-15 colon = system: HCT-15 colon
EKVX NSCLC = system: EKVX NSCLC
MOLT-4 leukemia = system: MOLT-4 leukemia
SR leukemia = system: SR leukemia
SK-MEL-2 melanoma = system: SK-MEL-2 melanoma
A549 NSCLC = system: A549 NSCLC
OVCAR-8 ovarian = system: OVCAR-8 ovarian
SW-620 colon = system: SW-620 colon
U251 CNS = system: U251 CNS
CCRF-CEM leukemia = system: CCRF-CEM leukemia
SK-MEL-5 melanoma = system: SK-MEL-5 melanoma
LOX IMVI melanoma = system: LOX IMVI melanoma
HOP-92 NSCLC = system: HOP-92 NSCLC
XF 498 CNS = system: XF 498 CNS
SN12C renal = system: SN12C renal
DLD-1 colon = system: DLD-1 colon
RXF-631 renal = system: RXF-631 renal
A498 renal = system: A498 renal
SNB-78 CNS = system: SNB-78 CNS
HOP-62 NSCLC = system: HOP-62 NSCLC
KM20L2 colon = system: KM20L2 colon
RPMI-8226 leukemia = system: RPMI-8226 leukemia
SNB-19 CNS = system: SNB-19 CNS
SK-MEL-28 melanoma = system: SK-MEL-28 melanoma
TK-10 renal = system: TK-10 renal
M19-MEL melanoma = system: M19-MEL melanoma
SF-268 CNS = system: SF-268 CNS
NCI-H460 lung = system: NCI-H460 lung
SF-295 CNS = system: SF-295 CNS
SF-539 CNS = system: SF-539 CNS
UACC-257 melanoma = system: UACC-257 melanoma
HCT-116 colon = system: HCT-116 colon
UACC-62 melanoma = system: UACC-62 melanoma
786-0 renal = system: 786-0 renal
DMS 273 small cell lung = system: DMS 273 small cell lung
HL-60(TB) leukemia = system: HL-60(TB) leukemia
HCC-2998 colon = system: HCC-2998 colon
MALME-3M melanoma = system: MALME-3M melanoma
NCI-H226 lung = system: NCI-H226 lung
ACHN renal = system: ACHN renal
K-562 leukemia = system: K-562 leukemia
KM12 colon = system: KM12 colon
IGROV1 ovarian = system: IGROV1 ovarian
LXFL 529 NSCLC = system: LXFL 529 NSCLC
HT29 colon = system: HT29 colon
COLO 205 colon = system: COLO 205 colon
SK-OV-3 ovarian = system: SK-OV-3 ovarian
OVCAR-4 ovarian = system: OVCAR-4 ovarian
CAKI-1 renal = system: CAKI-1 renal

CC1=C(C(=O)Nc2ccccc2)C(c2ccc([N+](=O)[O-])cc2)C(C(=O)Nc2ccccc2)=C(C)N1
TGI (NCI-H522 lung): 63.8 µM | TGI (NCI-H23 lung): 64.7 µM | TGI (UO-31 renal): > 100 µM | TGI (OVCAR-3 ovarian): > 100 µM | TGI (RXF 393 renal): 46.2 µM | TGI (DMS 114 small cell lung): 52.1 µM | TGI (SNB-75 CNS): 82.1 µM | TGI (OVCAR-5 ovarian): > 100 µM | TGI (M14 melanoma): 41.8 µM | TGI (HCT-15 colon): 50.9 µM | TGI (EKVX NSCLC): 46.2 µM | TGI (MOLT-4 leukemia): > 100 µM | TGI (SR leukemia): 45.7 µM | TGI (SK-MEL-2 melanoma): 31.4 µM | TGI (A549 NSCLC): > 100 µM | TGI (OVCAR-8 ovarian): 35.8 µM | TGI (SW-620 colon): 38.5 µM | TGI (U251 CNS): 38.6 µM | TGI (CCRF-CEM leukemia): 39.8 µM | TGI (SK-MEL-5 melanoma): 61.7 µM | TGI (LOX IMVI melanoma): 30.5 µM | TGI (HOP-92 NSCLC): 60.9 µM | TGI (XF 498 CNS): 49.2 µM | TGI (SN12C renal): 79.3 µM | TGI (DLD-1 colon): > 100 µM | TGI (RXF-631 renal): > 100 µM | TGI (A498 renal): 93 µM | TGI (SNB-78 CNS): > 100 µM | TGI (HOP-62 NSCLC): > 100 µM | TGI (KM20L2 colon): 35.3 µM | TGI (RPMI-8226 leukemia): 73.3 µM | TGI (SNB-19 CNS): 32 µM | TGI (SK-MEL-28 melanoma): 88.5 µM | TGI (TK-10 renal): > 100 µM | TGI (M19-MEL melanoma): 32.1 µM | TGI (SF-268 CNS): 57.9 µM | TGI (NCI-H460 lung): 70.3 µM | TGI (SF-295 CNS): > 100 µM | TGI (SF-539 CNS): 44.9 µM | TGI (UACC-257 melanoma): 53.8 µM | TGI (HCT-116 colon): 37.2 µM | TGI (UACC-62 melanoma): 27.9 µM | TGI (786-0 renal): 59 µM | TGI (DMS 273 small cell lung): 72.4 µM | TGI (HL-60(TB) leukemia): 34.1 µM | TGI (HCC-2998 colon): 45.8 µM | TGI (MALME-3M melanoma): > 100 µM | TGI (NCI-H226 lung): > 100 µM | TGI (ACHN renal): > 100 µM | TGI (K-562 leukemia): 63.5 µM | TGI (KM12 colon): 34.8 µM | TGI (IGROV1 ovarian): > 100 µM | TGI (LXFL 529 NSCLC): 46.5 µM | TGI (HT29 colon): 41.3 µM

O=c1oc2ccccc2n1P(=O)(n1c(=O)oc2ccccc21)n1c(=O)oc2ccccc21
TGI (COLO 205 colon): > 100 µM | TGI (NCI-H522 lung): > 100 µM | TGI (NCI-H23 lung): > 100 µM | TGI (UO-31 renal): > 100 µM | TGI (OVCAR-3 ovarian): > 100 µM | TGI (RXF 393 renal): > 100 µM | TGI (DMS 114 small cell lung): > 100 µM | TGI (SNB-75 CNS): > 100 µM | TGI (OVCAR-5 ovarian): > 100 µM | TGI (M14 melanoma): > 100 µM | TGI (EKVX NSCLC): > 100 µM | TGI (MOLT-4 leukemia): > 100 µM | TGI (SR leukemia): > 100 µM | TGI (SK-MEL-2 melanoma): > 100 µM | TGI (A549 NSCLC): > 100 µM | TGI (SW-620 colon): > 100 µM | TGI (SK-OV-3 ovarian): > 100 µM | TGI (U251 CNS): > 100 µM | TGI (OVCAR-4 ovarian): > 100 µM | TGI (CCRF-CEM leukemia): > 100 µM | TGI (LOX IMVI melanoma): > 100 µM | TGI (HOP-92 NSCLC): > 100 µM | TGI (XF 498 CNS): > 100 µM | TGI (SN12C renal): > 100 µM | TGI (DLD-1 colon): > 100 µM | TGI (RXF-631 renal): > 100 µM | TGI (A498 renal): > 100 µM | TGI (SNB-78 CNS): > 100 µM | TGI (HOP-62 NSCLC): > 100 µM | TGI (KM20L2 colon): > 100 µM | TGI (SNB-19 CNS): > 100 µM | TGI (SK-MEL-28 melanoma): > 100 µM | TGI (TK-10 renal): > 100 µM | TGI (M19-MEL melanoma): > 100 µM | TGI (SF-268 CNS): > 100 µM | TGI (NCI-H460 lung): > 100 µM | TGI (SF-295 CNS): > 100 µM | TGI (SF-539 CNS): > 100 µM | TGI (UACC-257 melanoma): > 100 µM | TGI (HCT-116 colon): > 100 µM | TGI (UACC-62 melanoma): > 100 µM | TGI (DMS 273 small cell lung): > 100 µM | TGI (HL-60(TB) leukemia): > 100 µM | TGI (HCC-2998 colon): > 100 µM | TGI (MALME-3M melanoma): > 100 µM | TGI (NCI-H226 lung): > 100 µM | TGI (ACHN renal): > 100 µM | TGI (CAKI-1 renal): > 100 µM | TGI (K-562 leukemia): > 100 µM | TGI (KM12 colon): > 100 µM | TGI (IGROV1 ovarian): > 100 µM | TGI (LXFL 529 NSCLC): > 100 µM | TGI (HT29 colon): > 100 µM
